Measured values as given in PMC4138103 (PLoS ONE, 2014).
Like-named read-outs stand apart in the source and are kept apart here.

System: Sprague-Dawley rats
Assay: Retinoid analyses in liver, serum and kidney
Assay type: in vivo, Rattus norvegicus
Conditions: for CED, Kidney all-trans RA amount / CED, Kidney all-trans RA concentration / CED, Kidney retinol amount / CED, Kidney retinol concentration / CED, Liver retinol amount / CED, Liver retinol concentration / CED, Liver retinyl esters amount / CED, Liver retinyl esters concentration / CED, Serum retinol concentration / CED-L, Kidney all-trans RA amount / CED-L, Kidney all-trans RA concentration / CED-L, Kidney retinol amount / CED-L, Kidney retinol concentration / CED-L, Liver retinol amount / CED-L, Liver retinol concentration / CED-L, Liver retinyl esters amount / CED-L, Liver retinyl esters concentration / CED-L, Serum retinol concentration / CED, Liver 9c-4o-13,14-dh-RA amount / CED, Liver 9c-4o-13,14-dh-RA concentration / CED-L, Liver 9c-4o-13,14-dh-RA amount / CED-L, Liver 9c-4o-13,14-dh-RA concentration / CED, Liver all-trans RA amount / CED, Liver all-trans RA concentration / CED-L, Liver all-trans RA amount / CED-L, Liver all-trans RA concentration / CED, Kidney retinyl esters amount / CED, Kidney retinyl esters concentration / CED-L, Kidney retinyl esters amount / CED-L, Kidney retinyl esters concentration: adipose tissue concentration based; for Emax: Rattus norvegicus, controls vs high dose according to the fitted model
Protocol: Retinoids in liver, serum, and kidney were analyzed according to Schmidt et al.. The polar retinoids 9-cis-retinoic acid (9-cis-RA), 13-cis-retinoic acid (13-cis-RA), 13-cis-4-oxo-retinoic acid (13-cis-4-o-RA), 9-cis-4-oxo-13,14-dihydro-retinoic acid (9-cis-4-o-13,14-dh-RA), all-trans retinoic acid (all-trans RA) and the apolar retinoids retinol and retinyl palmitate were extracted by a single liquid-extraction, separated from each other via solid-phase extraction using an aminopropyl phase, and then injected onto two different HPLC systems that were coupled with UV detection. […] The limits of detection (LOD) for all-trans RA and 9c-4o-13,14-dh-RA were 0.7 and 1.0 pmol/g tissue, and 0.3 and 0.6 pmol/ml serum, respectively. Retinol and retinyl palmitate were separated on a J'sphere ODS-H80 (4.6×150 mm, 4 µm particle size) obtained from YMC (Schermbeck, Germany), and were detected at 325 nm. The LOD for retinol and retinyl palmitate were 5.6 and 5.5 pmol/g tissue, and 4.2 and 4.2 pmol/ml serum, respectively.
Data were also analyzed using the BMD method, which is based on dose-response modeling of the full data set using a nested family of exponential and Hill models. The analyses were done on data of males and females combined, using sex as a covariate. […] In that case, different Critical Effect Doses (CEDs) and CEDs at the lowest bound of the confidence interval (CED-L) were generated for each sex. If no difference between sexes is detected, a CED and CED-Ls for the combined data is generated. However, this was also done if the curve fits are close, and separate analyses for males and females were then performed manually. CEDs and CED-Ls were calculated at the predefined Critical Effect Size (CES) of 5% (EFSA standard) or 10%.

Structure (SMILES): Clc1cc(Cl)c(-c2cc(Cl)c(Cl)c(Cl)c2Cl)cc1Cl [PCB 180, 2,2′,3′,4,4′,5,5′-heptachlorobiphenyl]
- CED, Kidney all-trans RA amount (F, CES 5%, model E2): 3290 µg/g lipid
- CED, Kidney all-trans RA concentration (F, CES 5%, model E2): 2930 µg/g lipid
- CED, Kidney retinol amount (F, CES 5%, model E2): 2240 µg/g lipid
- CED, Kidney retinol concentration (F, CES 5%, model E2): 2060 µg/g lipid
- CED, Liver retinol amount (F, CES 5%, model E2): 2840 µg/g lipid
- CED, Liver retinol concentration (F, CES 5%, model E2): 1000 µg/g lipid
- CED, Liver retinyl esters amount (F, CES 5%, model E2): 1620 µg/g lipid
- CED, Liver retinyl esters concentration (F, CES 5%, model E2): 793 µg/g lipid
- CED, Serum retinol concentration (F, CES 5%, model E2): 2470 µg/g lipid
- CED-L, Kidney all-trans RA amount (F, CES 5%, model E2): 2092 µg/g lipid
- CED-L, Kidney all-trans RA concentration (F, CES 5%, model E2): 2052 µg/g lipid
- CED-L, Kidney retinol amount (F, CES 5%, model E2): 1398 µg/g lipid
- CED-L, Kidney retinol concentration (F, CES 5%, model E2): 1346 µg/g lipid
- CED-L, Liver retinol amount (F, CES 5%, model E2): 1476 µg/g lipid
- CED-L, Liver retinol concentration (F, CES 5%, model E2): 762 µg/g lipid
- CED-L, Liver retinyl esters amount (F, CES 5%, model E2): 1206 µg/g lipid
- CED-L, Liver retinyl esters concentration (F, CES 5%, model E2): 670 µg/g lipid
- CED-L, Serum retinol concentration (F, CES 5%, model E2): 1521 µg/g lipid
- CED, Liver 9c-4o-13,14-dh-RA amount (F, CES 5%, model E4): 59.6 µg/g lipid
- CED, Liver 9c-4o-13,14-dh-RA concentration (F, CES 5%, model E4): 55.5 µg/g lipid
- CED-L, Liver 9c-4o-13,14-dh-RA amount (F, CES 5%, model E4): 37.4 µg/g lipid
- CED-L, Liver 9c-4o-13,14-dh-RA concentration (F, CES 5%, model E4): 39.6 µg/g lipid
- CED, Kidney all-trans RA amount (F, CES 10%, model E2): 6430 µg/g lipid
- CED, Kidney all-trans RA concentration (F, CES 10%, model E2): 5720 µg/g lipid
- CED, Kidney retinol amount (F, CES 10%, model E2): 4370 µg/g lipid
- CED, Kidney retinol concentration (F, CES 10%, model E2): 4030 µg/g lipid
- CED, Liver retinol amount (F, CES 10%, model E2): 5820 µg/g lipid
- CED, Liver retinol concentration (F, CES 10%, model E2): 2060 µg/g lipid
- CED, Liver retinyl esters amount (F, CES 10%, model E2): 3300 µg/g lipid
- CED, Liver retinyl esters concentration (F, CES 10%, model E2): 1630 µg/g lipid
- CED, Serum retinol concentration (F, CES 10%, model E2): 4820 µg/g lipid
- CED-L, Kidney all-trans RA amount (F, CES 10%, model E2): 4088 µg/g lipid
- CED-L, Kidney all-trans RA concentration (F, CES 10%, model E2): 4009 µg/g lipid
- CED-L, Kidney retinol amount (F, CES 10%, model E2): 2731 µg/g lipid
- CED-L, Kidney retinol concentration (F, CES 10%, model E2): 2630 µg/g lipid
- CED-L, Liver retinol amount (F, CES 10%, model E2): 3032 µg/g lipid
- CED-L, Liver retinol concentration (F, CES 10%, model E2): 1565 µg/g lipid
- CED-L, Liver retinyl esters amount (F, CES 10%, model E2): 2477 µg/g lipid
- CED-L, Liver retinyl esters concentration (F, CES 10%, model E2): 1375 µg/g lipid
- CED-L, Serum retinol concentration (F, CES 10%, model E2): 2970 µg/g lipid
- CED, Liver 9c-4o-13,14-dh-RA amount (F, CES 10%, model E4): 124 µg/g lipid
- CED, Liver 9c-4o-13,14-dh-RA concentration (F, CES 10%, model E4): 115 µg/g lipid
- CED-L, Liver 9c-4o-13,14-dh-RA amount (F, CES 10%, model E4): 77.9 µg/g lipid
- CED-L, Liver 9c-4o-13,14-dh-RA concentration (F, CES 10%, model E4): 82.1 µg/g lipid
- CED, Kidney retinol amount (M, CES 5%, model E2): 897 µg/g lipid
- CED, Kidney retinol concentration (M, CES 5%, model E2): 863 µg/g lipid
- CED, Liver all-trans RA amount (M, CES 5%, model E2): 95.1 µg/g lipid
- CED, Liver all-trans RA concentration (M, CES 5%, model E2): 1920 µg/g lipid
- CED, Liver retinol amount (M, CES 5%, model E2): 1860 µg/g lipid
- CED, Liver retinyl esters amount (M, CES 5%, model E2): 620 µg/g lipid
- CED-L, Kidney retinol amount (M, CES 5%, model E2): 638 µg/g lipid
- CED-L, Kidney retinol concentration (M, CES 5%, model E2): 640 µg/g lipid
- CED-L, Liver all-trans RA amount (M, CES 5%, model E2): 36.8 µg/g lipid
- CED-L, Liver all-trans RA concentration (M, CES 5%, model E2): 1143 µg/g lipid
- CED-L, Liver retinol amount (M, CES 5%, model E2): 1111 µg/g lipid
- CED-L, Liver retinyl esters amount (M, CES 5%, model E2): 525 µg/g lipid
- CED, Kidney retinyl esters amount (M, CES 5%, model E4): 38.8 µg/g lipid
- CED, Kidney retinyl esters concentration (M, CES 5%, model E4): 42.2 µg/g lipid
- CED, Liver retinol concentration (M, CES 5%, model E4): 31.2 µg/g lipid
- CED, Liver retinyl esters concentration (M, CES 5%, model E4): 108 µg/g lipid
- CED-L, Kidney retinyl esters amount (M, CES 5%, model E4): 12.5 µg/g lipid
- CED-L, Kidney retinyl esters concentration (M, CES 5%, model E4): 13.6 µg/g lipid
- CED-L, Liver retinol concentration (M, CES 5%, model E4): 18.8 µg/g lipid
- CED-L, Liver retinyl esters concentration (M, CES 5%, model E4): 60.1 µg/g lipid
- CED, Kidney retinol amount (M, CES 10%, model E2): 1750 µg/g lipid
- CED, Kidney retinol concentration (M, CES 10%, model E2): 1690 µg/g lipid
- CED, Liver all-trans RA amount (M, CES 10%, model E2): 196 µg/g lipid
- CED, Liver all-trans RA concentration (M, CES 10%, model E2): 3750 µg/g lipid
- CED, Liver retinol amount (M, CES 10%, model E2): 3820 µg/g lipid
- CED, Liver retinyl esters amount (M, CES 10%, model E2): 1270 µg/g lipid
- CED-L, Kidney retinol amount (M, CES 10%, model E2): 1244 µg/g lipid
- CED-L, Kidney retinol concentration (M, CES 10%, model E2): 1250 µg/g lipid
- CED-L, Liver all-trans RA amount (M, CES 10%, model E2): 76 µg/g lipid
- CED-L, Liver all-trans RA concentration (M, CES 10%, model E2): 2233 µg/g lipid
- CED-L, Liver retinol amount (M, CES 10%, model E2): 2282 µg/g lipid
- CED-L, Liver retinyl esters amount (M, CES 10%, model E2): 1078 µg/g lipid
- CED, Kidney retinyl esters amount (M, CES 10%, model E4): 78.3 µg/g lipid
- CED, Kidney retinyl esters concentration (M, CES 10%, model E4): 85.2 µg/g lipid
- CED, Liver retinol concentration (M, CES 10%, model E4): 66.6 µg/g lipid
- CED, Liver retinyl esters concentration (M, CES 10%, model E4): 225 µg/g lipid
- CED-L, Kidney retinyl esters amount (M, CES 10%, model E4): 25.2 µg/g lipid
- CED-L, Kidney retinyl esters concentration (M, CES 10%, model E4): 27.5 µg/g lipid
- CED-L, Liver retinol concentration (M, CES 10%, model E4): 40.0 µg/g lipid
- CED-L, Liver retinyl esters concentration (M, CES 10%, model E4): 126 µg/g lipid
- Emax (F, model E2, read-out: Maximum response, Kidney all-trans RA amount): 18.2%
- Emax (F, model E2, read-out: Maximum response, Kidney all-trans RA concentration): 20.7%
- Emax (F, model E2, read-out: Maximum response, Kidney retinol amount): 28%
- Emax (F, model E2, read-out: Maximum response, Kidney retinol concentration): 30.7%
- Emax (F, model E2, read-out: Maximum response, Liver retinol amount): -18.5%
- Emax (F, model E2, read-out: Maximum response, Liver retinol concentration): -43.9%
- Emax (F, model E2, read-out: Maximum response, Liver retinyl esters amount): -30.1%
- Emax (F, model E2, read-out: Maximum response, Liver retinyl esters concentration): -51.9%
- Emax (F, model E2, read-out: Maximum response, Serum retinol concentration): 25%
